The subject of this assay is Caco-2 cells. Nature of the assay: Evaluation of intestinal barrier function improvement: TEER reduction suppression in Caco-2 monolayer with inflammatory cytokines (TNFα, IL-1β, IFNγ). The class given is cell-based, human. As to conditions: for Synergistic effect (M.V./T/V/) / TEER reduction suppression ratio (%) +gallic acid (actual measurement value) (M.V.) / Synergistic effect (M.V./T.V.): combined use of phenolic compound and gallic acid; for Relative value of TEER reduction suppression ratio: sample alone 1 μM; for TEER reduction suppression ratio: sample alone 100 μM, TNFα 40 ng/mL, IL-1β 20 ng/mL, IFNγ 10 ng/mL, 48 hours; for TEER reduction suppression ratio (%) +gallic acid (theoretical value) (T.V.): sum of ratios of phenolic compound alone and gallic acid alone, 10 μM each. An excerpt: The intestinal barrier function improvement effect is indicated by, for example, increase in the electrical resistance value (transepithelial electric resistance: TEER) of the intestinal epithelial cells or suppression of the decrease in the TEER. A substance increasing the TEER or suppressing the decrease thereof has the action of normalizing or strengthening the tight junction in the intestinal epithelial cells. The intestinal barrier function improvement effect is also indicated by decrease in the amount of a substance permeating from the intestinal side of the intestinal epithelial cells to the inside of the body. The person skilled in the art can select a specific method of evaluating the intestinal barrier function improvement effect depending on the purpose. For exarple, as shown in Examples to be described later, a method for measuring TEER using an intestinal permeation model using human intestinal epithelial cells (Caco-2 cells) can be used. Specifically, inflammatory cytokine (TNFα, IL-1β, IFNγ and the like) is added into Caco-2 monolayer cultured cells to produce a state where the intestinal barrier function can be collapsed in human. If the addition of a test substance suppresses the decrease in the TEER as compared with the case where the substance is not added, the test substance can be evaluated to have the intestinal barrier function improvement effect.
Caco-2 cells were cultured for three weeks at 37° C. in Transwell (manufactured by Millicell Corporation) using DMEM (Dulbecco's modified Eagle's medium). A medium was removed from a plate of cultured Caco-2 cells, and the well was washed 3 times with serum-free DMEM. The well was filled with the medium. Then, the transepithelial electrical resistance (TEER) of Caco-2 monolayer cells was measured by Millicell-ERS (manufactured by Millipore Corporation). Cells (TEER≥1000 Ω·cm^2) determined that a sufficient tight junction was formed were selected, and used for the next screening. Then, to test solutions (media) on both apical and basolateral membrane sides, a sample, TNFα (40 ng/mL), IL-1β (20 ng/mL), and IFNγ (10 ng/mL) were added, followed by cultivating for 48 hours. The sample was dissolved in dimethyl sulfoxide (DMSO), and the solution was then added to the test solutions. In this case, a well to which inflammatory cytokine (TNFα, IL-1β, and IFNγ) and the sample were not added was provided as normal. A well to which inflammatory cytokine was added and the sample was not added was provided as control. After the cultivation, TEER was measured again, to evaluate whether the sample suppressed the reduction (decrease) of TEER due to the inflammatory cytokine.
The TEER reduction suppression ratio (%) due to the sample was determined according to the following formula from the TEER values of the well to which the sample was added, normal, and control.
(Calculating formula of TEER reduction suppression ratio) TEER reduction suppression ratio (%)=100×((TEER of well to which sample is added)−(TEER of control))/((TEER of normal)−(TEER of control))
In this evaluation system, as the TEER reduction suppression ratio (%) is higher, an intestinal barrier function improvement effect is higher.

Molecules are shown by their SMILES.

With `O=C1c2c(O)cc(O)cc2O[C@H](c2ccc(O)c(O)c2)[C@H]1O` [Taxifolin, taxifolin], for the setting “each 10 μM”, the “Synergistic effect (M.V./T/V/)” value is 2.0 and the “TEER reduction suppression ratio (%) +gallic acid (actual measurement value) (M.V.)” value worked out at 59%.
Consider `O=C(O[C@@H]1O[C@@H]2COC(=O)c3cc(O)c(O)c(O)c3-c3c(cc(O)c(O)c3O)C(=O)O[C@H]([C@H]1O)[C@@H]2O)c1cc(O)c(O)c(O)c1` [Corilagin, corilagin], for which, where the note is “each 1 μM”, the “Synergistic effect (M.V./T.V.)” value is given as 3.4 and the “TEER reduction suppression ratio (%) +gallic acid (actual measurement value) (M.V.)” value worked out at 76%.
Consider `O=C(OC[C@H]1O[C@@H](OC(=O)c2cc(O)c(O)c(O)c2)[C@H](OC(=O)c2cc(O)c(O)c(O)c2)[C@@H](OC(=O)c2cc(O)c(O)c(O)c2)[C@@H]1OC(=O)c1cc(O)c(O)c(O)c1)c1cc(O)c(O)c(O)c1` [1,2,3,4,6-penta-O-galloyl-β-D-glucose], for which, where the note is “each 1 μM”, the “Synergistic effect (M.V./T.V.)” value amounted to 1.4 and the “TEER reduction suppression ratio (%) +gallic acid (actual measurement value) (M.V.)” value is reported as 91%.
In the case of `O=c1c(-c2ccc(O)cc2)coc2cc(O)ccc12` [Daidzein, daidzein], where the note is “each 10 μM”, the “Synergistic effect (M.V./T/V/)” value is on record as 1.8 and the “TEER reduction suppression ratio (%) +gallic acid (actual measurement value) (M.V.)” value is on record as 50%.
For the compound `O=C(O)c1cc(O)c(O)c(O)c1` [Gallic acid (GA), 3,4,5-trihydroxybenzoic acid], the “TEER reduction suppression ratio” value turned out to be 86.5%. Besides, the “TEER reduction suppression ratio of gallic acid relative to quercetin at the same concentration” value (100 μM each, gallic acid vs quercetin) was “about 1.15 times”. Moreover, for the setting “Evaluation 1, catechin (CA) set to 1.0”, the “Relative value of TEER reduction suppression ratio” value was 0.4. Further, the “Relative value of TEER reduction suppression ratio” value (Evaluation 2, epicatechin (EC) set to 1.0) is listed as 0.5. Also, for the setting “Evaluation 3, gallocatechin (GC) set to 1.0”, the “Relative value of TEER reduction suppression ratio” value turned out to be 0.3. For the same compound, the “Relative value of TEER reduction suppression ratio” value (Evaluation 4, epigallocatechin (EGC) set to 1.0) is reported as 0.2. Moreover, where the note is “gallic acid alone, 1 μM and 10 μM”, the “Suppression of the reduction of TEER due to inflammatory cytokine” value was “suppressed the reduction of TEER”.
As to `O=C1OCC2O[C@@H](O)C3OC(=O)c4cc(O)c(O)c(O)c4-c4c(cc(O)c(O)c4O)C(=O)OC3[C@@H]2OC(=O)c2cc(O)c(O)c(O)c2-c2c1cc(O)c(O)c2O` (stereo partly drawn) [Pedunculagin, pedunculagin], where the note is “each 1 μM”, the “Synergistic effect (M.V./T.V.)” value is 1.7 and the “TEER reduction suppression ratio (%) +gallic acid (actual measurement value) (M.V.)” value is reported as 90%.
As for `O=C(O)/C=C/c1ccccc1O` [2-Coumaric acid, 2-coumaric acid], for the setting “each 10 μM”, the “Synergistic effect (M.V./T/V/)” value came to 3.0 and the “TEER reduction suppression ratio (%) +gallic acid (actual measurement value) (M.V.)” value came out at 46%.
`Oc1cc(O)c2c(c1)O[C@H](c1ccc(O)c(O)c1)[C@H](O)[C@H]2c1c(O)cc(O)c2c1O[C@H](c1ccc(O)c(O)c1)[C@H](O)C2` [Procyanidin B2, procyanidin B2]: the “TEER reduction suppression ratio (%) +gallic acid (theoretical value) (T.V.)” value was determined as 51%. Also, where the note is “each 10 μM”, the “Synergistic effect (M.V./T/V/)” value stood at 1.5 and the “TEER reduction suppression ratio (%) +gallic acid (actual measurement value) (M.V.)” value is listed as 76%.
For `O=C(O)/C=C/c1cccc(O)c1` [3-Coumaric acid, 3-coumaric acid], for the setting “each 10 μM”, the “Synergistic effect (M.V./T/V/)” value is reported as 1.2 and the “TEER reduction suppression ratio (%) +gallic acid (actual measurement value) (M.V.)” value came out at 48%.
Take `O=c1c(O)c(-c2ccc(O)c(O)c2)oc2cc(O)cc(O)c12` [Quercetin, quercetin, reference compound]: the “TEER reduction suppression ratio” value worked out at 75.0%. For the same compound, where the note is “each 10 μM”, the “Synergistic effect (M.V./T/V/)” value was determined as 1.7 and the “TEER reduction suppression ratio (%) +gallic acid (actual measurement value) (M.V.)” value stood at 61%.
Turning to `Oc1cc(O)cc(/C=C/c2ccc(O)c(O)c2)c1` [Piceatannol, piceatannol], where the note is “each 10 μM”, the “Synergistic effect (M.V./T/V/)” value was 1.1 and the “TEER reduction suppression ratio (%) +gallic acid (actual measurement value) (M.V.)” value is reported as 53%.
Turning to `Oc1cc(O)c2c(c1)O[C@H](c1ccc(O)c(O)c1)[C@H](O)[C@H]2c1c(O)cc(O)c2c1O[C@H](c1ccc(O)c(O)c1)[C@@H](O)C2` [Procyanidin B1, procyanidin B1], the “TEER reduction suppression ratio (%) +gallic acid (theoretical value) (T.V.)” value was determined as 31%. In addition, under “each 10 μM”, the “Synergistic effect (M.V./T/V/)” value turned out to be 2.4 and the “TEER reduction suppression ratio (%) +gallic acid (actual measurement value) (M.V.)” value is recorded as 74%.
As to `OC[C@H]1O[C@@H](Oc2cc(O)cc(/C=C/c3ccc(O)cc3)c2)[C@H](O)[C@@H](O)[C@@H]1O` (relative stereo) [trans-Piceid, trans-piceid], the “TEER reduction suppression ratio (%) +gallic acid (theoretical value) (T.V.)” value is reported as 45%. In addition, under “each 10 μM”, the “Synergistic effect (M.V./T/V/)” value amounted to 1.5 and the “TEER reduction suppression ratio (%) +gallic acid (actual measurement value) (M.V.)” value is 65%.
Take `O=C(O[C@@H]1COC(=O)c2cc(O)c(O)c(O)c2-c2c(cc(O)c(O)c2O)C(=O)O[C@H]1[C@@H]1OC(=O)c2cc(O)c(O)c(O)c2-c2c(O)c(O)c(O)c3c2C(=O)O[C@H]1[C@@H]3O)c1cc(O)c(O)c(O)c1` [Casuarinin, casuarinin]: where the note is “each 1 μM”, the “Synergistic effect (M.V./T.V.)” value is reported as 1.4 and the “TEER reduction suppression ratio (%) +gallic acid (actual measurement value) (M.V.)” value came to 81%.
In the same order, the values of `O=C(OC[C@H]1O[C@@H](OC(=O)c2cc(O)c(O)c(O)c2)[C@H](O)[C@@H](O)[C@@H]1OC(=O)c1cc(O)c(O)c(O)c1)c1cc(O)c(O)c(O)c1` [1,4,6-tri-O-galloyl-β-D-glucose] are 1.7 and 40%.

Source of the values: US20200315998A1, “COMPOSITION FOR IMPROVING INTESTINAL BARRIER FUNCTION” (SUNTORY HOLDINGS LIMITED, priority 2017, published 2020).
